In experiment [1] the test system is Murine ESCs (D3 ES). Briefly: Alkaline phosphatase activity of ESCs (compound screen). The conditions noted are these: media containing 15% FCS, without exogenous LIF. Format: cell-based, mouse. As for the experimental part:
(§1) Cell culture. ESCs, D3ES (ATCC CRL-1934) were maintained on Mitomycin C treated MEFs in mouse ESC medium containing DMEM (Invitrogen) supplemented with 15% FBS (Invitrogen), 0.1 mM MEM nonessential amino acids (Invitrogen), 0.1 mM 2-mercaptoethanol (Sigma), 2 mM L-glutamine (Invitrogen) and 1,000 U/ml LIF (CHEMICON). To remove MEFs, cells were collected by trypsinization and plated on gelatin-coated culture dishes for 20 min. Non-adherent cells consisting mainly of ESCs were replated on gelatin-coated culture dishes again. Non-adherent cells were used for further experiments. P19 cells were cultured according to conditions recommended by the ATCC. Cells were incubated at 37° C. in a 5% CO2 incubator. Purified Wnt3a was purchased (R&D Systems).
Compound Screens. For the small molecule screen, alkaline phosphatase activity of ESCs was determined. ESCs were plated into 96-well tissue culture plates (Falcon) at a density of 316-1,000 cells per well in ESC medium without LIF. Compounds were added at a final concentration of 4 μg/ml. Cells were treated with compounds for 7 days and test cell populations were washed with PBS and 100 μl of p-nitrophenyl phosphate solution (MOSS Inc.) was added. The absorbance at 405 nm was measured by spectrophotometer (Spectramax, Molecular Devices).

The target of experiment [2] is T1, CBP/β-catenin complex (Mus musculus, UniProt P45481).
T1 construct: endogenous in cells; host or cells: P19 cells (nuclear fraction)
Kind of experiment: Co-immunoprecipitation of β-catenin with CBP in P19 cells. The format is cell-based. The following applies: Wnt3a, 10 μM, 24 hours. How it is done:
(§2) Co-immunoprecipitation of β-catenin with CBP or p300 in P19 cells. Co-immunoprecipitation was performed as described in (27). Briefly, P19 cells were treated with 10 μM ICG-001 or 10 μM IQ-1 (control DMSO was 0.025%) for 24 hours, after which they were washed and lysed […]. Nuclear fraction was isolated and precleared with antibodies to CBP(A-22) or p300(N-15). β-catenin was detected using a mouse monoclonal antibody (Becton Dickinson) at a dilution of 1:5000.

The test system of experiment [3] is p300/β-catenin complex. Kind of experiment: Co-immunoprecipitation of β-catenin with p300 in P19 cells. Format: cell-based. The following applies: Wnt3a, 10 μM, 24 hours. As for the experimental part: as §2
Experiment [4] has as its system zebrafish embryos. Briefly: Zebrafish embryo development (convergent extension). The conditions noted are these: 1 μM, 1-cell stage embryos, 24 h. The format is in vivo, zebrafish (danio rerio). As for the experimental part:
Zebrafish experiments. Wild-type (AB) zebrafish strain at 1-cell stage were treated with IQ-1 at a final concentration of 1 μM in embryo medium for 24 h. Control zebrafish embryos were incubated at an equivalent concentration of DMSO. At the end of this 24 h treatment, embryos were manually dechorionated and imaged. Zebrafish embryos were maintained at 28° C. Results shown are representative of those obtained from at least 10 embryos for each group, from 2 independent experiments.

For experiment [5], the system named is Murine ESCs (D3 ES). Kind of experiment: SSEA-1 expression of ESCs by flow cytometry. The following applies: 7 days after addition of IQ-1. The format is cell-based, mouse. As for the experimental part:
Flow Cytometry. Analysis of SSEA-1 expression of ESCs was performed by flow cytometry according to Zandstra et al. (35). The test cell population was washed in ice cold Hanks balanced salt solution (Invitrogen) containing 2% FCS(HF) and resuspended for 10 min in HF containing anti-mouse CD16/CD32 monoclonal antibody at 1 μg/100 μl (Pharmingen) to block nonspecific binding. Blocked cells were then incubated at 1×10^7 cells/ml for 40 min on ice with anti-SSEA-1 (Kyowa Medex) followed by FITC-Goat anti Mouse IgM antibody (ZYMED). Cells to be analyzed for their SSEA-1 expression were then washed twice in HF with 2 μg/ml propidium iodide (Dojindo) added into the final wash. The cells were then resuspended in HF for analysis on a FACS Calibur (Becton Dickinson).
In general terms: A flow cytometer gives signals particle by particle.

The subject of experiment [6] is Mouse D3 ESCs. Kind of experiment: Long term expansion of ESCs without MEF feeders or LIF. The format is cell-based. How it is done: FIG. 1. […] FIG. 1A, Structure of IQ-1. FIG. 1B, IQ-1 dose dependently maintains alkaline phosphatase activity. FIG. 1C, IQ-1, dose dependently, maintains SSEA-1 expression. SSEA-1 expression was analyzed 7 days after addition of IQ-1. FIG. 1D, IQ-1 enabled ESCs to proliferate in the undifferentiated state for at least 65 days, without MEF feeders or LIF. ESCs, in media supplemented with 4 μg/ml IQ-1, were passaged 2-3 times every week at 1×10^5-1×10^6 cells per 6 cm dish and counted. All error bars represent mean±SD.
as §1
IQ-1 allowed for long term expansion of ESCs in culture without MEFs and without the addition of exogenous LIF. […]

The subject of experiment [7] is Nanog gene expression in ESCs. Kind of experiment: Real-time RT-PCR for Nanog in feeder-free ESCs. The format is cell-based, mouse. How it is done: FIG. 2. […] Real-time RT-PCR for Nanog was performed. The control expression level of Nanog at day 0 was set at 1. FIG. 2B, removal of IQ-1 decreases Nanog gene expression in ESCs. IQ-1 was removed from ESCs which had been cultured under feeder-free system and in the presence of IQ-1 (4 μg/ml), for three days. At the end of this period, mRNA was isolated and real-time RT-PCR was performed to assay for Nanog gene expression. FIG. 2C, effects of IQ-1 were not mediated through Stat3 signaling pathway as judged by luciferase reporter assay. Feeder-free ESCs, transfected with the pSTAT3-TA-Luc reporter, were exposed to IQ-1 at the indicated doses, or LIF. All error bars represent mean±SD.
Real-time RT-PCR. Total RNA was isolated and reverse-transcribed using SuperScript III (Invitrogen). Real-time RT-PCR (Sybr Green; BioRad) was performed using with the gene-specific primers: […]

The test system of experiment [8] is p300 Ser89 phosphorylation. Kind of experiment: Immunoblot of p300 and phospho-serine89-p300 in P19 cells. The format is cell-based. The following applies: Wnt3a stimulated P19 cells, 10 μM, 24 hours. How it is done: Detection of CBP, p300, and phospho-serine89-p300 in P19 cells. P19 cells exposed to either Wnt3A or vehicle control, after which IQ-1 was added to a final concentration of 10 μM. Control DMSO was 0.025%. Cells were incubated for 24 hours. At the end of this incubation period, cells were washed, lysed and subjected to SDS-PAGE. CBP and p300 were detected using the rabbit polyclonal antibody (A-22)(1:5000); and (C-20)(1:5000) (Santa Cruz), respectively. Phospho-serine89-p300 was detected using custom antisera at a dilution of 1:100.

T1 sequence (P45481 2-2441 limits assumed, one chain of several): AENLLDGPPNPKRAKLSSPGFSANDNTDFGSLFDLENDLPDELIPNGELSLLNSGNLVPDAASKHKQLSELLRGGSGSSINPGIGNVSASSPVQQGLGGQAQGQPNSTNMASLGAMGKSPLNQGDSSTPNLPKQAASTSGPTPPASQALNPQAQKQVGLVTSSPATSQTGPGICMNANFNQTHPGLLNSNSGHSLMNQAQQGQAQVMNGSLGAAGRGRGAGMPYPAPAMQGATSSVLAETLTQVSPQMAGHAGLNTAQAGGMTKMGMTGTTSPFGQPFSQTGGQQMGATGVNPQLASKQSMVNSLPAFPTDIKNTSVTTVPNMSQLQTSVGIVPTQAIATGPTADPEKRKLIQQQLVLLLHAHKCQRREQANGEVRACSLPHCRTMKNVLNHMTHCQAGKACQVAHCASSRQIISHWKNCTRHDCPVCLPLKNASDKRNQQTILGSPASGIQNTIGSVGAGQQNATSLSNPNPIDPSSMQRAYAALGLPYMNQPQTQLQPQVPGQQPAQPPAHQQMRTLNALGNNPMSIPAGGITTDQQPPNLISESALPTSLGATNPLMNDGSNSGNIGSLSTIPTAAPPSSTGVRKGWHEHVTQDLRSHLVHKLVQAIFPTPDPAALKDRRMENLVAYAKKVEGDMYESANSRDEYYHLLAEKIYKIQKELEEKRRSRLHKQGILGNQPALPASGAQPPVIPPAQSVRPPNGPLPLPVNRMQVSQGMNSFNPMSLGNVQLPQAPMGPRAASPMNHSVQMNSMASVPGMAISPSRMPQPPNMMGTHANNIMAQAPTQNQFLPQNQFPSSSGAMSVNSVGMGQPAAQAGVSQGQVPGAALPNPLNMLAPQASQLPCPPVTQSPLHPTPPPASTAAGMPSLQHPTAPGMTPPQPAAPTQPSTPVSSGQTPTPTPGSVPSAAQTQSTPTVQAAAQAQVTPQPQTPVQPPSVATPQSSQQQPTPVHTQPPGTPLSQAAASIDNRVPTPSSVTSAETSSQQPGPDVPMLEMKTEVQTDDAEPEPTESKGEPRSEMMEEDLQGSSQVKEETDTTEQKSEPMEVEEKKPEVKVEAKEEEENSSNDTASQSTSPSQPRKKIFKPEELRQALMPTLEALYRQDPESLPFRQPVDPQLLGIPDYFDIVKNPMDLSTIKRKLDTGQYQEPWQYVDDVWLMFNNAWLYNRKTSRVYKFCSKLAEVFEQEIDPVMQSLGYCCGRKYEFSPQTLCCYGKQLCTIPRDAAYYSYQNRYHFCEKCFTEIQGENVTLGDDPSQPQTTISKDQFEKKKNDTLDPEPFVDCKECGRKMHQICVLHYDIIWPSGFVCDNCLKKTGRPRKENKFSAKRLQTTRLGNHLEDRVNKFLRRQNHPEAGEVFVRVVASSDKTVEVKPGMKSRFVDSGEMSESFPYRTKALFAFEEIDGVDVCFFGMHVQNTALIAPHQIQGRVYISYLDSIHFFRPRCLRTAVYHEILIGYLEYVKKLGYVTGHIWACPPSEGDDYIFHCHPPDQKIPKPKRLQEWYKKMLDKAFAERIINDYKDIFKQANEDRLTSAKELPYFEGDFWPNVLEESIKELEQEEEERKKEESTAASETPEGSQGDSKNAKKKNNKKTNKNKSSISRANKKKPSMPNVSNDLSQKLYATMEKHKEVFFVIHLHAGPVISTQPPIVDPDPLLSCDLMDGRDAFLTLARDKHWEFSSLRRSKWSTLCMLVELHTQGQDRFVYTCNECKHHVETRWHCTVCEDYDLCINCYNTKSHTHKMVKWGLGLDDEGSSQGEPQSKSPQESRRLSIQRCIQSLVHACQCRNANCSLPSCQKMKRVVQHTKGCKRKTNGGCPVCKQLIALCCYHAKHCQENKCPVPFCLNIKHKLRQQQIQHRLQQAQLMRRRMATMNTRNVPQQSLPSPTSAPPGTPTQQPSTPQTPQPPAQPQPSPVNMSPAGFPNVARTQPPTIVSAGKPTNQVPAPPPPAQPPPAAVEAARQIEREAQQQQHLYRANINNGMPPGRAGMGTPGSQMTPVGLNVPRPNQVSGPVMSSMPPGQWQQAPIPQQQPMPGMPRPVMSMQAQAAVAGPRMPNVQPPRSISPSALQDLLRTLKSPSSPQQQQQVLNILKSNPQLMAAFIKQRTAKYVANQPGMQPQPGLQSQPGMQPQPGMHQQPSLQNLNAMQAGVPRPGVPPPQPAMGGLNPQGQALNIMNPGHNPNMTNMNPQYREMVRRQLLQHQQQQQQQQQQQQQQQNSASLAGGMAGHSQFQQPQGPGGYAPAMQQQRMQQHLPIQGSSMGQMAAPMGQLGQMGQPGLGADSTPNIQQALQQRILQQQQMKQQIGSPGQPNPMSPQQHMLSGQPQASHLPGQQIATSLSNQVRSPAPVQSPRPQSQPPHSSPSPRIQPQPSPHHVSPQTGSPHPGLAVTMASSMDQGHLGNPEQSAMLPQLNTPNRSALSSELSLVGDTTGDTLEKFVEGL

With `CC(=O)c1ccc(NN=C(C(N)=O)C2=NC(C)(C)Cc3ccccc32)cc1` [IQ-1], the “Alkaline Phosphatase (AP) activity” value in experiment [1] is “dose dependently increased AP activity”. For the same compound, the “relative amount of β-catenin associated with CBP” value in experiment [2] is “dramatic increase”. Moreover, the p300/β-catenin interaction entry in experiment [3] is on record as “at the expense of the p300/β-catenin complex”. The zebrafish embryo development result in experiment [4] is listed as “significant developmental defects”. Further, the SSEA-1 expression entry in experiment [5] is “enhanced expression”. Also, the “time ESCs proliferate in the undifferentiated state” value in experiment [6] (4 μg/ml IQ-1, without MEF feeders or LIF) was “at least 65 days”. In addition, the ESC proliferation rate in experiment [6] (15% FCS plus 4 μg/ml IQ-1, 65 days, without MEFs or LIF) is reported as ~2 log increase every ten days. Moreover, the “Nanog level after removal of IQ-1 from culture” value in experiment [7] (IQ-1 (4 μg/ml) removed for three days) was “precipitous drop in Nanog level”. Besides, the Nanog expression result in experiment [7] (feeder-free ESCs, IQ-1 4 μg/ml or LIF 1000 U/ml, 21 hrs) was “significantly increased and maintained Nanog expression”. In addition, in experiment [8], the “phosphorylation level of p300 Ser89” value is listed as “dramatic decrease” and the “total amount of p300” value is “not affected”.

For the origin of these results see patent US20070128669A1, “Serum-free expansion of cells in culture” (Institute for Chemical Genomics, priority 2005, published 2007).
